Laboratory results reported in patent publication US6825209B2, “Compounds having unique CB1 receptor binding selectivity and methods for their production and use” (Research Triangle Institute, priority 2002, dated 2004).
Read-outs that look alike come from different tables or passages of the source.

Columns and labels:
human CB1 receptor = biological target: T1, human CB1 receptor (Homo sapiens, UniProt P21554); experiment: Radioligand displacement in human CB1 receptor-transfected cells (HEK-293); format: binding
T1 construct: expressed in transfected cells; host or cells: HEK-293
T1 sequence (P21554 whole entry): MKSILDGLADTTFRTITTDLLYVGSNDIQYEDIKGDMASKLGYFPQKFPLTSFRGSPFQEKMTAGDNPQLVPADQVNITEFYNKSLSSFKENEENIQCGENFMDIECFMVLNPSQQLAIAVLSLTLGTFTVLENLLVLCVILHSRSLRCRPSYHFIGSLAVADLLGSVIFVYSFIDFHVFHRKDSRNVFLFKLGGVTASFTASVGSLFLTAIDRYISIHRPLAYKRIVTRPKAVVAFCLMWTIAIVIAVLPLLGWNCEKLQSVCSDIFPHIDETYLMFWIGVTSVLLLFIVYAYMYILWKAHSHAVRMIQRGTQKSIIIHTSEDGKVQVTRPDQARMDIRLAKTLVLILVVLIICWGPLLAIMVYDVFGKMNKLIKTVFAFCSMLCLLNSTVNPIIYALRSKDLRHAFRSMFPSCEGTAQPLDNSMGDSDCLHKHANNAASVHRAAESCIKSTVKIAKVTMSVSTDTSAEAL
Protocol: Human CB1 receptor affinity. The alkyl amide analogs of the present invention were examined using transfected cell lines expressing the human CB1 receptor (Table 3).
Methods—binding assay in transfected cell lines. The methods used for performing binding assays in transfected cells expressing human CB1 or CB2 receptors are those used above. The CB1 receptor involved a HEK-293 expression system whereas the CB2 receptor was expressed in CHO-K1 cells. […] The incubations and separations were then performed as described above for rat brain membrane preparations.
(§1) Data analysis. Saturation and displacement data were analyzed by unweighted nonlinear regression of receptor binding data. For displacement studies, curve-fitting and IC50 calculation were done with GraphPad Prism (GraphPad Software, Inc., San Diego, Calif.), which fits the data to one and two-site models and compares the two fits statistically. A similar approach was used for the analysis of isotherm data for calculation of Kd's. A two-site fit was accepted only if it was statistically significant (p<0.05) and the following results were not observed:
(§2) IC50 values were then converted to Ki values by reported methods (Cheng and Prusoff, 1973). The statistical evaluation of curve-fitting data allowed for a non-arbitrary conclusion based on the displacement data.

CB1 receptor = biological target: T2, CB1 receptor (Rattus norvegicus, UniProt P20272); experiment: Radioligand displacement in whole rat brain (CB1) membrane preparations; format: binding; details: Table 4, parallel synthesis analogs; for Ki: n = 1, concentration assumes 100% yield; for Max. Disp. %, 3H-CP55940 / Max. Disp. %, 3H-SR141716A / Max. Disp. %, 3H-WIN55212-2: n = 1
T2 construct: Whole rat brains or dissected regions from live CD rats; tissue Charles River or Pel-Freez Biologicals; host or cells: whole rat brain (CD rats), P2 membrane
T2 sequence (P20272 whole entry): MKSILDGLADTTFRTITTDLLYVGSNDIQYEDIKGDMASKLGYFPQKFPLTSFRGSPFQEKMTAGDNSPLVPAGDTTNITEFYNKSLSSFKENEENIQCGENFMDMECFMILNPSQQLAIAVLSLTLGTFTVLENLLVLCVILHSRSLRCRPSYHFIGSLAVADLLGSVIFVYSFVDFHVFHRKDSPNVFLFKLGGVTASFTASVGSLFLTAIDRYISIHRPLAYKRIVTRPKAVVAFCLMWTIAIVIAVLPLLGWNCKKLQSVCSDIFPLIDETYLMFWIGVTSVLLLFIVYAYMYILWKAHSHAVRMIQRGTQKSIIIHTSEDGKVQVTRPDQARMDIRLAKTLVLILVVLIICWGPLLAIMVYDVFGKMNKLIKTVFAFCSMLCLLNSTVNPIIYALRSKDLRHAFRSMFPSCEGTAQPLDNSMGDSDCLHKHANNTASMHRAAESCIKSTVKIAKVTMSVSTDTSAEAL
Excerpt: CB1 receptor affinity in rat brain.
Methods—membrane preparation from brain. The methods for tissue preparation are essentially those described by Devane et al. (1988) as modified by Compton et al. (1993) and later by Thomas et al. (1998). Whole rat brains or dissected regions from live CD rats from Charles River or Pel-Freez Biologicals (Rogers, Ark.), or human brain sections obtained from the National Disease Research Institute, were allowed to thaw to room temperature on ice. Both whole brain and dissected brain regions were used because different brain regions may express different cannabinoid receptor subtypes (Skaper et al., 1996; Thomas et al., 1998). The tissue was homogenized with a Kontes Potter-Elvehjem glass-Teflon grinding system (Fisher Scientific, Springfield, N.J.) in buffer 1 (320 mM sucrose, 2 mM EDTA, 5 mM MgCl2. The homogenate was centrifuged at 1600 g for 10 min. The supernatant was saved and combined with the two subsequent supernatants obtained from washing and 1600 g centrifugation of the P1 pellet. The combined supernatant fractions were then centrifuged at 39,000 g for 15 min. The P2 pellet was resuspended in 50 mL of buffer 2 (50 mM Tris.HCl, 2 mM EDTA, 5 mM MgCl2, pH 7.0), incubated at 37° C. for 10 min, then centrifuged at 23,000 g for 10 min. The P2 membrane was resuspended in 50 mL of buffer 2, incubated at 30° C. for 40 min, then centrifuged at 11,000 g for 15 min. The final wash-treated P2 pellet was resuspended in assay buffer 3 (50 mM Tris.HCl, 1 mM EDTA, 3 MM MgCl2, pH 7.4). Protein concentrations were determined by the method of Bradford (1976) using Coomassie brilliant blue dye (Bio-Rad, Richmond, Calif.) and BSA standards (bovine serum albumin, fatty acid free, Sigma Chemical Co., St. Louis, Mo.) prepared in assay buffer 3. The membrane preparation was divided into aliquots and stored at −80° C. For use in the binding assay, an aliquot of frozen membranes was thawed on ice and diluted to a concentration of ca. 0.2 mg/mL in assay buffer.
Methods—binding assay in brain membrane preparation. The methods for ligand binding are essentially those described by Devane et al. (1988) with the exception that we used a filtration assay. […] All cannabinoid analogs were prepared by suspension in buffer A from a 1-5 mg/mL ethanolic stock. Following incubation at 30° C. for 1 h, binding was terminated by vacuum filtration through pretreated filters in a 96-well sampling manifold (Millipore, Bedford, Mass.). Reaction vessels were washed at least 3 times with 1 mL of ice cold buffer B (50 mM Tris.HCl, 1 mg/mL BSA). The filter plates were air-dried and sealed on the bottom. Liquid scintillant was added to the wells and the top sealed. After incubating the plates in cocktail for at least 2 h, the radioactivity present was determined by liquid scintillation spectrometry. Assays were done in duplicate, and results represent the combined data of three to six independent experiments. All assays were performed in polypropylene test tubes. The GF/C glassfiber filter plates (Packard, Meriden, Conn.) were pretreated in buffer B for at least 1 h.
as §1, §2

[1] = displacement of 3H-CP55940, whole rat brain, 3H-CP55940
[2] = displacement of 3H-SR141716A, whole rat brain, 3H-SR141716A
[3] = displacement of 3H-WIN55212-2, whole rat brain, 3H-WIN55212-2
[4] = displacement of 3H-CP55940, human CB1 transfected cells, 3H-CP55940, Table 5, parallel synthesis analogs, concentration assumes 100% yield
[5] = displacement of 3H-SR141716A, human CB1 transfected cells, 3H-SR141716A, Table 5, parallel synthesis analogs, concentration assumes 100% yield
[6] = displacement of 3H-WIN55212-2, human CB1 transfected cells, 3H-WIN55212-2, Table 5, parallel synthesis analogs, concentration assumes 100% yield
[7] = human CB1 transfected cells, 3H-CP55940, Table 5, parallel synthesis analogs
[8] = human CB1 transfected cells, 3H-SR141716A, Table 5, parallel synthesis analogs
[9] = human CB1 transfected cells, 3H-WIN55212-2, Table 5, parallel synthesis analogs

| Compound | Max. Disp. %, 3H-CP55940 (human CB1 receptor) [%] | Max. Disp. %, 3H-SR141716A (human CB1 receptor) [%] | Max. Disp. %, 3H-WIN55212-2 (human CB1 receptor) [%] | Ki (human CB1 receptor; displacement of 3H-CP55940) [nM] | Ki (human CB1 receptor; displacement of 3H-SR141716A) [nM] | Ki (human CB1 receptor; displacement of 3H-WIN55212-2) [nM] | Ki (CB1 receptor; [1]) [nM] | Ki (CB1 receptor; [2]) [nM] | Ki (CB1 receptor; [3]) [nM] | Max. Disp. %, 3H-CP55940 (CB1 receptor; whole rat brain, 3H-CP55940) [%] | Max. Disp. %, 3H-SR141716A (CB1 receptor; whole rat brain, 3H-SR141716A) [%] | Max. Disp. %, 3H-WIN55212-2 (CB1 receptor; whole rat brain, 3H-WIN55212-2) [%] | Ki (human CB1 receptor; [4]) [nM] | Ki (human CB1 receptor; [5]) [nM] | Ki (human CB1 receptor; [6]) [nM] | Max. Disp. %, 3H-CP55940 (human CB1 receptor; [7]) [%] | Max. Disp. %, 3H-SR141716A (human CB1 receptor; [8]) [%] | Max. Disp. %, 3H-WIN55212-2 (human CB1 receptor; [9]) [%] |
| --- | --- | --- | --- | --- | --- | --- | --- | --- | --- | --- | --- | --- | --- | --- | --- | --- | --- | --- |
| CCCCCC(C)NC(=O)c1nn(-c2ccc(Cl)cc2Cl)c(-c2ccc(Cl)cc2)c1C (centres unmarked) [AKS-10262-1] | 80.7 | 95.6 | 100 | 11.9 | 2.02 | 54.6 | 10.7 | 2.6 | 1.84 | 98.2 | 96.5 | 89.0 | – | – | – | – | – | – |
| CC(C)=CCC/C(C)=C/CNC(=O)c1nn(-c2ccc(Cl)cc2Cl)c(-c2ccc(Cl)cc2)c1C [AKS-10262-2] | – | – | – | – | – | – | 48.1 | 20.1 | 40.5 | 84.2 | 95.7 | 89.0 | 26.8 | 6.8 | 211 | 84.2 | 95.7 | 78.3 |
| CCCCCCCCCC(C)NC(=O)c1nn(-c2ccc(Cl)cc2Cl)c(-c2ccc(Cl)cc2)c1C (centres unmarked) [AKS-10262-3] | – | – | – | – | – | – | 27.1 | 9.7 | 22.3 | 83.7 | 97.3 | 82.4 | 41.1 | 7 | 22.2 | 77.7 | 90.0 | 76.1 |
| CCCCCCC(C)NC(=O)c1nn(-c2ccc(Cl)cc2Cl)c(-c2ccc(Cl)cc2)c1C (centres unmarked) [AKS-10262-4] | 79.5 | 91.5 | 0.0 | 26.3 | 2.8 | – | 26.2 | 10.8 | 5.8 | 83.9 | 91.3 | 53.7 | – | – | – | – | – | – |
| CCCCCC(CC)NC(=O)c1nn(-c2ccc(Cl)cc2Cl)c(-c2ccc(Cl)cc2)c1C (centres unmarked) [AKS-10262-5] | – | – | – | – | – | – | 19.6 | 8.6 | 25.8 | 89.5 | 95.7 | 85.1 | 9.6 | 3.8 | 78.6 | 91.4 | 95.9 | 100 |
| CCC(C)CC(C)NC(=O)c1nn(-c2ccc(Cl)cc2Cl)c(-c2ccc(Cl)cc2)c1C (centres unmarked) [AKS-10262-6] | – | – | – | – | – | – | 9.6 | 2.3 | 13.7 | 91.4 | 96.3 | 89.9 | 9.4 | 2.2 | 23.9 | 86.5 | 100 | 78.7 |
| Cc1c(C(=O)NC(C)CCCC(C)C)nn(-c2ccc(Cl)cc2Cl)c1-c1ccc(Cl)cc1 (centres unmarked) [AKS-10262-7] | 82.5 | 93.7 | 67.9 | 7.39 | 2.1 | 64.2 | 8.97 | 3.57 | 5.76 | 89.6 | 95.1 | 87.7 | – | – | – | – | – | – |
| Cc1c(C(=O)NC(C)CCC(C)C)nn(-c2ccc(Cl)cc2Cl)c1-c1ccc(Cl)cc1 (centres unmarked) [AKS-10262-8] | – | – | – | – | – | – | 3.37 | 2.81 | 28.6 | 76.6 | 96.2 | 94.1 | 13.2 | 5.48 | 33.2 | 76.8 | 93.6 | 91.5 |
| Cc1c(C(=O)NCCC(c2ccccc2)c2ccccc2)nn(-c2ccc(Cl)cc2Cl)c1-c1ccc(Cl)cc1 [AKS-10262-9] | – | – | – | – | – | – | 19.9 | 5.52 | 10.3 | 90.1 | 96.0 | 81.1 | 25.2 | 3.28 | 16.9 | 88.1 | 96.7 | 77.3 |
